Laboratory results published in patent US20110039762A1, “TARGETED ANTIMICROBIAL MOIETIES” (C3 JIAN, INC., priority 2009, published 2011).
“Also recorded” adds a separate entry of the source.

Assays:
[1] = tested on: microorganisms (e.g., bacteria, yeasts, fungi); test: Targeting peptide binding to target microorganisms (Table 3); details: preferably 1x PBS; for Target(s) (microorganisms bound by the targeting peptide): peptide binding in aqueous buffers varied by peptide solubility
C. jeikeium = test: Kill or inhibit growth/proliferation; morphology, biofilm and growth disruption (Tables 5, 6); type: cell-based, Corynebacterium jeikeium; design: key: A: Peptide aggregates; B: Less hyphal formation; Clumps; Diffuse clumps and small polyps; F: Diffuse growth; H: Thin; I: Growth inhibition; Microcolony formation; Rippled; Small polyps; Thick; W: Halo formation on top, microlonies on bottom; note: test concentration or dose not given here
microorganisms = test: Peptides having multiple activities (targeting/binding, antimicrobial, growth or phenotype altering)
Excerpt: In certain embodiments, peptides described herein can have multiple activities. Thus for example, a peptide can have both binding/targeting activity and antimicrobial activity. Such peptides can be used, e.g., in a chimeric construct, for any or all of these properties. Thus, for example, a peptide designated “B” in Table 8 can be used as a targeting peptide. If it is also designated G or M it can also be used for antimicrobial activity.

S. epidermidis = test: Kill or inhibit growth/proliferation; morphology, biofilm and growth disruption (Tables 5, 6); type: cell-based, Staphylococcus epidermidis; design: key: A: Peptide aggregates; B: Less hyphal formation; Clumps; Diffuse clumps and small polyps; F: Diffuse growth; H: Thin; I: Growth inhibition; Microcolony formation; Rippled; Small polyps; Thick; W: Halo formation on top, microlonies on bottom; note: test concentration or dose not given here
MRSA = test: as above; type: cell-based, Methicillin-resistant Staphylococcus aureus; design: key: A: Peptide aggregates; B: Less hyphal formation; Clumps; Diffuse clumps and small polyps; F: Diffuse growth; H: Thin; I: Growth inhibition; Microcolony formation; Rippled; Small polyps; Thick; W: Halo formation on top, microlonies on bottom; note: test concentration or dose not given here
E. faecalis = test: as above; type: cell-based, Enterococcus faecalis; design: key: A: Peptide aggregates; B: Less hyphal formation; Clumps; Diffuse clumps and small polyps; F: Diffuse growth; H: Thin; I: Growth inhibition; Microcolony formation; Rippled; Small polyps; Thick; W: Halo formation on top, microlonies on bottom
S. pneumoniae = test: as above; type: cell-based, Streptococcus pneumoniae; design: key: A: Peptide aggregates; B: Less hyphal formation; Clumps; Diffuse clumps and small polyps; F: Diffuse growth; H: Thin; I: Growth inhibition; Microcolony formation; Rippled; Small polyps; Thick; W: Halo formation on top, microlonies on bottom
[2] = microorganism the targeting peptide binds, binding in aqueous buffers varied by peptide solubility
[3] = microorganism(s) the targeting peptide binds, binding in aqueous buffers depending on peptide solubility
Throughout, for Organism, effect (morphology, biofilm and growth disruption): test concentration or dose not given here.
Throughout, for Organism, effect: test concentration or dose not given here.

| Substance | Target(s) [1, 2] | Organism, effect (C. jeikeium) | Activities (microorganisms) | Organism, effect (S. epidermidis) | Organism, effect (MRSA) | Target(s) [1, 3] | Organism, effect (E. faecalis) | Target(s) (microorganisms bound by the targeting peptide) [1] | Organism, effect (S. pneumoniae) | Organism, effect (morphology, biofilm and growth disruption) (E. faecalis) | Organism, effect (morphology, biofilm and growth disruption) (S. pneumoniae) | Organism, effect (morphology, biofilm and growth disruption) (C. jeikeium) | Organism, effect (morphology, biofilm and growth disruption) (S. epidermidis) | Organism, effect (morphology, biofilm and growth disruption) (MRSA) |
| --- | --- | --- | --- | --- | --- | --- | --- | --- | --- | --- | --- | --- | --- | --- |
| ALDCSEQSVILWYETILDKIVGVIK [PF-028] | S. epidermidis and M. luteus and MRSA | C. jeikeium (M) | G B | S. epidermidis (M) | MRSA (R) |  |  |  |  |  |  |  |  |  |
| PF-046: peptide having multiple activities (chain 1 LDFYLTKHLTLML; chain 2 LDFYLTKHLTLML; Peptide with targeting and/or antimicrobial activity) | E. coli; also recorded: E. faecalis; also recorded: C. jeikeium | C. jeikeium (R) | G B | S. epidermidis (C) | MRSA (R) |  |  |  |  |  |  |  |  |  |
| PF-048: peptide having multiple activities (chain 1 LYFAFKKYQERVNQAPNIEY; chain 2 LYFAFKKYQERVNQAPNIEY; Peptide with targeting and/or antimicrobial activity) | S. epidermidis and M. luteus and E. coli and MRSA and C. jeikeium and C. jejuni | C. jeikeium (S) | G B | S. epidermidis (D) | MRSA (W) |  |  |  |  |  |  |  |  |  |
| PF-065: peptide having multiple activities (LEKNTRDNYFIHAIDRIYINTSKGLFPESELVAWG; Peptide with targeting and/or antimicrobial activity) | M. luteus and E. coli and P. aeruginosa and C. albicans and MRSA and S. pneumoniae and C. jeikeium and C. jejuni | C. jeikeium (A) | G B | S. epidermidis (D) | MRSA (R) |  |  |  |  |  |  |  |  |  |
| PF-186: peptide having multiple activities (DADKNLSLERDRFAWRVAAP; Peptide with targeting and/or antimicrobial activity) |  | C. jeikeium (A) | G B | S. epidermidis (C) |  | S. epidermidis and M. luteus and E. coli and P. aeruginosa and MRSA and C. jeikeium |  |  |  |  |  |  |  |  |
| PF-191: peptide having multiple activities (QFCNFAWLFLASNNAQVSALA; Peptide with targeting and/or antimicrobial activity) |  | C. jeikeium (R) | G B | S. epidermidis (A) | MRSA (H) | E. coli; also recorded: P. aeruginosa; also recorded: C. jejuni |  |  |  |  |  |  |  |  |
| PF-208: peptide having multiple activities (DAYHCHLVRSPDAHDLSMRIGFV; Peptide with targeting and/or antimicrobial activity) |  | C. jeikeium (A) | G B | S. epidermidis (D) |  | S. epidermidis and C. albicans and MRSA and S. pneumoniae and E. faecalis and C. jeikeium and C. jejuni |  |  |  |  |  |  |  |  |
| PF-622: peptide having multiple activities (TREDVFSVRLINNIVNKQA; Peptide with targeting and/or antimicrobial activity) |  | C. jeikeium (D) | G B | S. epidermidis (D) | MRSA (D) |  | E. faecalis (D) | S. epidermidis; also recorded: P. aeruginosa; also recorded: C. albicans; also recorded: S. pneumoniae; also recorded: E. faecalis; also recorded: C. jeikeium | S. pneumoniae (M) |  |  |  |  |  |
| PF-623: peptide having multiple activities (VLFAVYLGALDWLFSWLTQKM; Peptide with targeting and/or antimicrobial activity) |  | C. jeikeium (R) | G B | S. epidermidis (M) | MRSA (D) |  | E. faecalis (D) | S. epidermidis and P. aeruginosa and MRSA and S. pneumoniae and E. faecalis and C. jeikeium | S. pneumoniae (D) |  |  |  |  |  |
| PF-629: peptide having multiple activities (chain 1 GLAAIATVFALY; chain 2 GLAAIATVFALY; Peptide with targeting and/or antimicrobial activity) |  | C. jeikeium (R) | G B | S. epidermidis (C) | MRSA (D) |  | E. faecalis (R) | S. epidermidis and P. aeruginosa and C. albicans and MRSA and S. pneumoniae and E. faecalis and C. jeikeium | S. pneumoniae (M) |  |  |  |  |  |
| PF-637: peptide having multiple activities (chain 1 SRIKQDARSVRKYDRIGIFFYSFKSA; chain 2 SRIKQDARSVRKYDRIGIFFYSFKSA; Peptide with targeting and/or antimicrobial activity) |  | C. jeikeium (D) | G B | S. epidermidis (M) | MRSA (M) |  | E. faecalis (D) | S. epidermidis and P. aeruginosa and C. albicans and MRSA and S. pneumoniae and E. faecalis and C. jeikeium | S. pneumoniae (M) |  |  |  |  |  |
| PF-657 (chain 1 YVANYTITQFGRDFDDRLAVAIHFA; chain 2 YVANYTITQFGRDFDDRLAVAIHFA; Peptide with targeting and/or antimicrobial activity) |  |  |  |  |  |  |  | Mycobacteria spp |  | E. faecalis (D) | S. pneumoniae (H) | C. jeikeium (D) | S. epidermidis (C) | MRSA (D) |
| PF-681: peptide having multiple activities (chain 1 TALTTVGVSGARLITYCVGVEDI; chain 2 TALTTVGVSGARLITYCVGVEDI; Peptide with targeting and/or antimicrobial activity) |  |  | G B |  |  |  |  | M. smegmatis |  | E. faecalis (R) | S. pneumoniae (M) | C. jeikeium (R) | S. epidermidis (M) | MRSA (M) |
| PF-685 (chain 1 PTLWLACL; chain 2 PTLWLACL; Peptide with targeting and/or antimicrobial activity) |  |  |  |  |  |  |  | Mycobacteria spp |  | E. faecalis (R) | S. pneumoniae (M) | C. jeikeium (R) | S. epidermidis (M) | MRSA (M) |
